# Results from ChEMBL document CHEMBL1201862, “PubChem BioAssay data set” (2004).
#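 The compound was tested at five concentrations on cells cultured in 96-well plates, with a 48-hour exposure period. At the GI50, growth is halved.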 The source made the active and inactive calls. Cut-off read from the data, not from the text of the source: active = GI50 up to about 1.1 µM and inactive = higher.
# Legend:
# Experiment in all cases: growth of human tumour cells (NCI), 48 h
# UO-31 = system: UO-31
# A549 = system: A549
# OVCAR-4 = system: OVCAR-4
# NCI-H226 = system: NCI-H226
# UACC-257 = system: UACC-257
# SK-MEL-2 = system: SK-MEL-2
# NCI/ADR-RES = system: NCI/ADR-RES
# NCI-H23 = system: NCI-H23
# IGROV-1 = system: IGROV-1
# HCC 2998 = system: HCC 2998
# CCRF-CEM = system: CCRF-CEM
# KM12 = system: KM12
# SNB-75 = system: SNB-75
# SF-295 = system: SF-295
# Malme-3M = system: Malme-3M
# HCT-116 = system: HCT-116
# A498 = system: A498
# SK-OV-3 = system: SK-OV-3
# TK-10 = system: TK-10
# HOP-92 = system: HOP-92
Compound,GI50 (UO-31),GI50 (A549),GI50 (OVCAR-4),GI50 (NCI-H226),GI50 (UACC-257),GI50 (SK-MEL-2),GI50 (NCI/ADR-RES),GI50 (NCI-H23),GI50 (IGROV-1),GI50 (HCC 2998),GI50 (CCRF-CEM),GI50 (KM12),GI50 (SNB-75),GI50 (SF-295),GI50 (Malme-3M),GI50 (HCT-116),GI50 (A498),GI50 (SK-OV-3),GI50 (TK-10),GI50 (HOP-92)
CN(C)CCNC(=O)c1cc(Cl)cc2cc3ccccc3nc12,1.02 µM (active),0.557 µM (active),2.2 µM (inactive),0.843 µM (active),1.6 µM (inactive),1.98 µM (inactive),0.766 µM (active),1.39 µM (inactive),1.14 µM (inactive),1.39 µM (inactive),0.498 µM (active),1.17 µM (inactive),2.27 µM (inactive),0.492 µM (active),5.73 µM (inactive),0.445 µM (active),0.179 µM (active),2.21 µM (inactive),,
CN1C(=O)CC(=O)N1/C(=C/c1ccccc1)c1ccccc1,18.1 µM (inactive),85.3 µM (inactive),49.8 µM (inactive),> 100 µM (inactive),> 100 µM (inactive),38.5 µM (inactive),> 100 µM (inactive),> 100 µM (inactive),18.2 µM (inactive),> 100 µM (inactive),21.3 µM (inactive),> 100 µM (inactive),> 100 µM (inactive),67 µM (inactive),,> 100 µM (inactive),,> 100 µM (inactive),33 µM (inactive),75.5 µM (inactive)
CCOC(=O)C1(C(F)(F)F)N=C(CC)OC(N2CCOCC2)=N1 (stereo not drawn),> 100 µM (inactive),> 100 µM (inactive),> 100 µM (inactive),,> 100 µM (inactive),> 100 µM (inactive),> 100 µM (inactive),> 100 µM (inactive),> 100 µM (inactive),> 100 µM (inactive),> 100 µM (inactive),> 100 µM (inactive),> 100 µM (inactive),> 100 µM (inactive),,> 100 µM (inactive),,> 100 µM (inactive),> 100 µM (inactive),> 100 µM (inactive)
N=C(N)SCCC(=O)CCSC(=N)N,> 100 µM (inactive),> 100 µM (inactive),> 100 µM (inactive),> 100 µM (inactive),36 µM (inactive),,91.2 µM (inactive),> 100 µM (inactive),,> 100 µM (inactive),> 100 µM (inactive),70.3 µM (inactive),> 100 µM (inactive),> 100 µM (inactive),,> 100 µM (inactive),5.5 µM (inactive),> 100 µM (inactive),> 100 µM (inactive),> 100 µM (inactive)
CC12CCC(=O)[C@@]1(C)CCCC2O (stereo partly drawn),> 100 µM (inactive),> 100 µM (inactive),> 100 µM (inactive),> 100 µM (inactive),> 100 µM (inactive),> 100 µM (inactive),> 100 µM (inactive),> 100 µM (inactive),> 100 µM (inactive),> 100 µM (inactive),> 100 µM (inactive),> 100 µM (inactive),> 100 µM (inactive),> 100 µM (inactive),> 100 µM (inactive),> 100 µM (inactive),,> 100 µM (inactive),> 100 µM (inactive),
CC=C/C=C/[C@@H]1O[C@](O)([C@H](CC)C(=O)NC/C=C/C=C(\C)[C@@H](OC)[C@@H](C)[C@@H]2O[C@H](/C=C/C=C/C=C(\C)C(=O)c3c(O)cc[nH]c3=O)[C@H](O)[C@@H]2O)[C@H](O)[C@H](O)C1(C)C,> 100 µM (inactive),> 100 µM (inactive),> 100 µM (inactive),,> 100 µM (inactive),> 100 µM (inactive),> 100 µM (inactive),> 100 µM (inactive),> 100 µM (inactive),> 100 µM (inactive),,72.6 µM (inactive),> 100 µM (inactive),69.7 µM (inactive),94.2 µM (inactive),,> 100 µM (inactive),> 100 µM (inactive),> 100 µM (inactive),> 100 µM (inactive)
CN(C)C(=O)C(F)(F)C(c1ccc(Br)cc1)C1C(=O)N(C)C(=O)N(C)C1=O (stereo not drawn),> 100 µM (inactive),> 100 µM (inactive),> 100 µM (inactive),> 100 µM (inactive),> 100 µM (inactive),> 100 µM (inactive),> 100 µM (inactive),> 100 µM (inactive),,> 100 µM (inactive),> 100 µM (inactive),> 100 µM (inactive),> 100 µM (inactive),> 100 µM (inactive),,> 100 µM (inactive),> 100 µM (inactive),> 100 µM (inactive),> 100 µM (inactive),> 100 µM (inactive)
